A value given as a limit tells only on which side of the number the result lay.

The experiment relates to HCV genotype 1b replicon. As to the kind of experiment: HCV replicon assay (1b_Huh-Luc/Neo-ET cell line, luciferase readout). It counts as cell-based. The following applies: Hepatitis C virus, Huh-7, 72 h, read-out: Inhibition of HCV genotype 1b. Put shortly: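 Luciferase activity (Bright-Glo) after 72 h compound exposure, in triplicate, measured replicon levels in Huh 7-derived 1b_Huh-Luc/Neo-ET cells. EC50 was fitted from percent-of-control values and determined in repeat runs.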
A general note: In antiviral work, replicon cells carry a viral genome segment that copies itself.
In the case of `COC(=O)N[C@H](C(=O)N1CCC[C@H]1c1ncc(-c2ccc(-c3nc4cc(-c5cnc([C@@H]6CCCN6C(=O)[C@@H](NC(=O)OC)C(C)C)[nH]5)ccc4o3)cc2)[nH]1)C(C)C` [compound 236], the EC50 was under 1 nM.

For `COC(=O)N[C@H](C(=O)N1CCC[C@H]1c1nc2ccc(-c3ccc4cc(-c5cnc([C@@H]6CCCN6C(=O)[C@H](NC(=O)OC)c6ccccc6)[nH]5)cnc4c3)cc2[nH]1)C(C)C` [compound 195], the EC50 is under 1 nM.

In the case of `COC(=O)N[C@H](C(=O)N1CCC[C@H]1c1ncc(-c2ccc3cc(-c4ccc5nc([C@@H]6CCCN6C(=O)[C@@H](NC(=O)OC)C(C)C)[nH]c5c4)ccc3n2)[nH]1)C(C)C` [compound 209], the EC50 is under 1 nM.

Take `COC(=O)N[C@H](C(=O)N1CCC[C@H]1c1nc(-c2ccc3nc(C45CCC(c6cnc([C@@H]7CCCN7C(=O)[C@@H](NC(=O)OC)C(C)C)[nH]6)(CC4)CC5)ccc3c2)c[nH]1)C(C)C` [compound 262]: the EC50 is under 1 nM.

For the compound `COC(=O)N[C@H](C(=O)N1CCC[C@H]1c1nc(-c2ccc3nc(-c4ccc(-c5cnc([C@@H]6CCCN6C(=O)[C@@H](NC(=O)OC)C(C)C)[nH]5)cc4)cc(OC)c3c2)c[nH]1)C(C)C` [compound 79], the EC50 was under 1 nM.

For the compound `COC(=O)N[C@H](C(=O)N1CCC[C@H]1c1ncc(-c2ccc(-c3ccc4cc(-c5c[nH]c([C@@H]6CCCN6C(=O)[C@H](NC(=O)OC)c6ccccc6)n5)cnc4c3)cn2)[nH]1)C(C)C` [compound 94], the EC50 is under 1 nM.

For the compound `COC(=O)N[C@H](C(=O)N1CCCC[C@H]1c1ncc(-c2ccc(-c3nc4ccc(-c5cnc([C@@H]6CCCCN6C(=O)[C@@H](NC(=O)OC)C(C)C)[nH]5)cc4s3)cc2)[nH]1)C(C)C` [compound 243], the EC50 was under 1 nM.

As for `COC(=O)N[C@H](C(=O)N1CCC[C@H]1c1ncc(-c2ccc3oc(-c4ccc(-c5cnc([C@@H]6CCCN6C(=O)[C@H](NC(=O)OC)c6ccccc6)[nH]5)cc4)nc3c2)[nH]1)C(C)C` [compound 260], the EC50 is under 1 nM.

In the case of `COC(=O)N[C@H](C(=O)N1CCC[C@H]1c1nc2ccc(-c3ccc4cc(-c5cnc([C@@H]6CCCN6C(=O)[C@H](NC(=O)OC)c6ccccc6)[nH]5)ccc4c3)cc2[nH]1)C1CCOCC1` [compound 212], the EC50 is under 1 nM.

For `COC(=O)N[C@H](C(=O)N1CCC[C@H]1c1ncc(-c2ccc3cc(-c4ccc5nc([C@@H]6CCCN6C(=O)[C@@H](c6ccccc6)N6CCCC6)[nH]c5c4)ccc3c2)[nH]1)C(C)C` [compound 180], the EC50 is under 1 nM.

With `CN(C)[C@@H](C(=O)N1CCC[C@H]1c1nc(-c2ccc3nc(C45CCC(c6cnc([C@@H]7CCCN7C(=O)[C@@H](c7ccccc7)N(C)C)[nH]6)(CC4)CC5)ccc3c2)c[nH]1)c1ccccc1` [compound 264], the EC50 fell in the range of 1 to 9.9 nM.

For the compound `COC(=O)N[C@H](C(=O)N1CCC[C@H]1c1nc(-c2ccc3c(=O)n(-c4ccc(-c5cnc([C@@H]6CCCN6C(=O)[C@@H](NC(=O)OC)C(C)C)[nH]5)cc4)ccc3c2)c[nH]1)C(C)C` [compound 287], the EC50 is under 1 nM.

`COC(=O)N[C@H](C(=O)N1CCC[C@H]1c1ncc(-c2ccc(-c3nc4ccc(-c5cnc([C@@H]6CCCN6C(=O)[C@@H](NC(=O)OC)C(C)C)[nH]5)cc4n3C)cc2)[nH]1)C(C)C` [compound 231]: the EC50 is under 1 nM.

For the compound `COC(=O)N[C@H](C(=O)N1CCC[C@H]1c1nc2ccc(-c3ccc4cc(-c5cnc([C@@H]6CCCN6C(=O)[C@@H](c6ccccc6)N6CCCC6)[nH]5)ccc4c3)cc2[nH]1)C(C)C` [compound 178], the EC50 was under 1 nM.

Consider `COC(=O)N[C@H](C(=O)N1CCC[C@H]1c1ncc(-c2ccc(-c3ccc4cc(-c5c[nH]c([C@@H]6CCCN6C(=O)[C@H](NC(=O)OC(C)(C)C)c6ccccc6)n5)ccc4n3)cc2)[nH]1)C(C)C` [compound 35], for which the EC50 was under 1 nM.

In the case of `COC(=O)N[C@H](C(=O)N1CCC[C@H]1c1ncc(-c2ccc3cc(-c4ccc(-c5cnc([C@@H]6CCCN6C(=O)[C@H](NC(=O)OC)c6ccccc6)[nH]5)c(F)c4)ncc3c2)[nH]1)C1CCOCC1` [compound 127], the EC50 was under 1 nM.

In the case of `COC(=O)N[C@H](C(=O)N1CCC[C@H]1c1nc(-c2ccc3nc(-c4ccc(-c5cnc([C@@H]6CCCN6C(=O)[C@H](NC(=O)NC6CC6)c6ccccc6)[nH]5)cc4)ccc3c2)c[nH]1)C(C)C` [compound 34], the EC50 was under 1 nM.

With `COC(=O)N[C@H](C(=O)N1CCC[C@H]1c1nc(-c2ccc3nc(-c4ccc(-c5cnc([C@@H]6CCCN6C(=O)[C@@H](NC(=O)OC)C(C)C)[nH]5)nc4)ccc3c2)c[nH]1)C(C)C` [compound 53], the EC50 is under 1 nM.

`COC(=O)N[C@H](C(=O)N1CCC[C@H]1c1ncc(-c2ccc(-c3cc4ccc(-c5cnc([C@@H]6CCCN6C(=O)[C@@H](NC(=O)OC)C(C)C)[nH]5)cc4cn3)c(F)c2)[nH]1)C(C)C` [compound 150]: the EC50 is under 1 nM.

On to `COC(=O)N[C@H](C(=O)N1CCC[C@H]1c1ncc(-c2ccc3cc(-c4ccc(-c5cnc([C@@H]6COCCN6C(=O)[C@H](NC(=O)OC)c6ccccc6)[nH]5)cc4)ccc3c2)[nH]1)C(C)C` [compound 131], for which the EC50 is under 1 nM.

Turning to `CNC(=O)N[C@@H](C(=O)N1CCC[C@H]1c1ncc(-c2ccc(-c3ccc4cc(-c5c[nH]c([C@@H]6CCCN6C(=O)[C@@H](NC(=O)OC)C(C)C)n5)ccc4c3)cc2)[nH]1)c1ccccc1` [Compound 18], the EC50 is under 1 nM.

For `COC(=O)N[C@H](C(=O)N1CCC[C@H]1c1nc2ccc3cc(-c4ccc5cc(-c6cnc([C@@H]7CCCN7C(=O)[C@@H](NC(=O)OC)C7CCOCC7)[nH]6)ccc5n4)ccc3c2[nH]1)C(C)C` [compound 297], the EC50 is under 1 nM.

Regarding `COC(=O)N[C@H](C(=O)N1CCC[C@H]1c1nc(-c2ccc3cc(-c4ccc(-c5cnc([C@@H]6CCCN6C(=O)[C@H](NC(=O)OC6CCOCC6)c6ccccc6)[nH]5)cc4)ccc3c2)c[nH]1)C1CCOCC1` [compound 113], the EC50 is under 1 nM.

`COC(=O)N[C@H](C(=O)N1CCC[C@H]1c1ncc(-c2ccc(-c3ccc4cc(-c5cnc([C@@H]6CCCN6C(=O)[C@H](NC(=O)OC)c6ccccc6)[nH]5)ccc4n3)cc2F)[nH]1)C(C)C` [compound 124]: the EC50 was under 1 nM.

`COC(=O)N[C@H](C(=O)N1CCC[C@H]1c1nc(-c2cnc3cc(-c4ccc(-c5cnc([C@@H]6CCCN6C(=O)[C@@H](NC(=O)OC)C6CCOCC6)[nH]5)cn4)ccc3c2)c[nH]1)C1CCOCC1` [compound 75]: the EC50 is under 1 nM.

Take `COC(=O)N[C@H](C(=O)N1CCC[C@H]1c1nc(-c2ccc3cc(-c4ccc(-c5cnc([C@@H]6CCCN6C(=O)[C@@H](NC(=O)OC)C(C)C)[nH]5)cc4)ccc3c2)c[nH]1)C(C)C` [compound 1]: the EC50 is under 1 nM.

Take `COC(=O)N[C@H](C(=O)N1CCC[C@H]1c1nc(-c2cnc3cc(-c4ccc(-c5cnc([C@@H]6CCCN6C(=O)[C@@H](NC(=O)OC)C6CCOCC6)[nH]5)cn4)ccc3c2)c[nH]1)C(C)C` [compound 62]: the EC50 was under 1 nM.

On to `COC(=O)N[C@H](C(=O)N1CCC[C@H]1c1nc(-c2cnc3cc(-c4ccc(-c5cnc([C@@H]6CCCN6C(=O)[C@H](NC(=O)OC(C)(C)C)c6ccccc6)[nH]5)cc4)ccc3c2)c[nH]1)C1CCOCC1` [compound 72], for which the EC50 was under 1 nM.

As to `COC(=O)N[C@H](C(=O)N1CCC[C@H]1c1ncc(-c2ccc3cc(-c4ccc(-c5cnc([C@@H]6CCCN6C(=O)[C@H](NC(=O)NC6CC6)c6ccccc6)[nH]5)cc4)ncc3c2)[nH]1)C1CCOCC1` [compound 145], the EC50 was under 1 nM.

Regarding `COC(=O)N[C@H](C(=O)N1CCC[C@H]1c1ncc(-c2ccc(-c3ccc4cc(-c5cnc([C@@H]6CCCN6C(=O)[C@@H](NC(=O)OC)C6CCOCC6)[nH]5)ccc4n3)c(F)c2)[nH]1)C(C)C` [compound 120], the EC50 is under 1 nM.

On to `COC(=O)N[C@H](C(=O)N1CCC[C@H]1c1nc(-c2ccc3c(c2)CCN(c2c(F)cc(-c4cnc([C@@H]5CCCN5C(=O)[C@@H](NC(=O)OC)C(C)C)[nH]4)cc2F)C3)c[nH]1)C(C)C` [compound 269], for which the EC50 was under 1 nM.

As for `COC(=O)N[C@@H](C(=O)N1CCC[C@H]1c1nc(-c2ccc3nc(C45CCC(c6cnc([C@@H]7CCCN7C(=O)[C@H](NC(=O)OC)c7ccccc7)[nH]6)(CC4)CC5)ccc3c2)c[nH]1)c1ccccc1` [compound 263], the EC50 is under 1 nM.

For `COC(=O)N[C@H](C(=O)N1CCC[C@H]1c1ncc(-c2ccc(-c3ccc4cc(-c5cnc([C@@H]6CCCN6C(=O)[C@@H](NC(=O)OC)C6CCOCC6)[nH]5)ccc4c3)cc2)[nH]1)C1CCOCC1` [compound 133], the EC50 was under 1 nM.

Turning to `COC(=O)N[C@H](C(=O)N1CCC[C@H]1c1nc(-c2ccc3cc(-c4ccc(-c5cnc([C@@H]6CCCN6C(=O)[C@@H](NC(=O)OC)C6CCOCC6)[nH]5)cc4)ccc3c2)c[nH]1)C(C)C` [compound 46], the EC50 is under 1 nM.

`COC(=O)N[C@H](C(=O)N1CCC[C@H]1c1nc(-c2ccc3cc(-c4ccc(-c5cnc([C@@H]6CCCN6C(=O)[C@H](NC(=O)OC)c6ccccc6)[nH]5)cc4)ccc3c2)c[nH]1)C1CCOCC1` [compound 99]: the EC50 was under 1 nM.

On to `COC(=O)N[C@H](C(=O)N1CCC[C@H]1c1ncc(-c2ccc(-c3ccc4cc(-c5c[nH]c([C@@H]6CCCN6C(=O)[C@H](NC(=O)NC6CC6)c6ccccc6)n5)ccc4c3)cc2)[nH]1)C(C)C` [compound 29], for which the EC50 was under 1 nM.

As for `COC(=O)N[C@H](C(=O)N1CCC[C@H]1c1ncc(-c2ccc(-c3nc4cc(-c5cnc([C@@H]6CCCN6C(=O)[C@@H](NC(=O)OC)C6CC6)[nH]5)ccc4o3)cc2)[nH]1)C1CC1` [compound 239], the EC50 was under 1 nM.

In the case of `COC(=O)N[C@H](C(=O)N1CCC[C@H]1c1nc(-c2ccc3cc(-c4ccc(-c5cnc([C@@H]6CCCN6C(=O)[C@@H](NC(=O)OC)C6CCOCC6)[nH]5)cc4C)ccc3c2)c[nH]1)C(C)C` [compound 86], the EC50 is under 1 nM.

For the compound `COC(=O)N[C@H](C(=O)N1CCC[C@H]1c1ncc(-c2ccc(-c3cc4ccc(-c5cnc([C@@H]6CCCN6C(=O)[C@H](NC(=O)OC6CCOCC6)c6ccccc6)[nH]5)cc4cn3)cc2F)[nH]1)C(C)C` [compound 156], the EC50 was under 1 nM.

Values taken from US8618151B2, “Inhibitors of HCV NS5A” (Presidio Pharmaceuticals, Inc., priority 2008, dated 2013).
